Laboratory results reported in patent US9981969B2, “Imidazole derivatives and methods of use thereof for improving the pharmacokinetics of a drug” (MERCK SHARP & DOHME CORP., priority 2013, dated 2018).
pIC50: −log10 of the molar value.

Tests used:
CYP3A4 = molecular target: T1, CYP3A4 (Homo sapiens, UniProt P08684); test: Cocktail assay for CYPs in human liver microsomes, midazolam 1′-hydroxylation (3A4); assay type: biochemical; conditions: 2 μM midazolam, 10 min at 37° C.
T1 construct: 0.1 mg/mL protein human liver microsomes (BD Gentest); tissue BD Gentest; host or cells: human liver microsomes
T1 sequence (P08684 whole entry): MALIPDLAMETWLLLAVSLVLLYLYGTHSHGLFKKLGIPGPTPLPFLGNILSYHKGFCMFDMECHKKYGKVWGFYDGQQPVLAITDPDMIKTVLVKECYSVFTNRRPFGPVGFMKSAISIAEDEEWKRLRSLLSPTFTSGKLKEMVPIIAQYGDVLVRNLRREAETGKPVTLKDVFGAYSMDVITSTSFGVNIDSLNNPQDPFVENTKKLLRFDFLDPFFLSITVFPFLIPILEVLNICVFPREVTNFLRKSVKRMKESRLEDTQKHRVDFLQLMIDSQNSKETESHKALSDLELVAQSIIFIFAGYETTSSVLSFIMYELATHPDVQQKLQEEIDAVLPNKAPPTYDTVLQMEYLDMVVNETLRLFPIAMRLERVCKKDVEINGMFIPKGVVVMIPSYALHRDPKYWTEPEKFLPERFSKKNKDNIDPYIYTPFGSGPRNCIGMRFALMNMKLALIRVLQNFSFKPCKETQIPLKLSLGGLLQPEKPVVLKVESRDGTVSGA
Method: (§1) This assay was performed in a standard 96-well plate design. IC50 values were calculated from the percent inhibition observed for each test compound at 6 concentrations (for example, 0.0032, 0.016, 0.08, 0.4, 2 and 10 μM). The incubation substrate mix contains 10 μM phenacetin (1A2), 5 μM diclofenac (2C9), 30 μM mephenytoin (2C19), 5 μM dextromethorphan (2D6) and 2 μM midazolam (3A4), 0.1 mg/mL protein human liver microsomes (BD Gentest), 1 mM NAPDH, 3.3 mM MgCl2 and 100 mM potassium phosphate buffer (pH 7.4). The production of the metabolite of each probe substrate was determined after incubation for 10 min at 37° C. Quantitation of the metabolite peak area ratio against an internal standard (tolbutamide) was determined by LC/MS/MS analysis following acetonitrile treatment of the incubations.
(§2) Samples were analyzed in the MRM mode with a SCIEX API-4000 mass spectrometer (Applied Biosystems, Foster City, Calif.), with a Shimadzu LC-20 AD pump (Shimadzu corporation, Kyoto, JP) and a CTC PAL autosampler (Agilent Technologies, Switzerland). A Phenomenex, Luna, 5 μm, 100A, 2.00×30 mm HPLC column was used for the separation. The mobile phases were: (A) 0.1% formic acid in water and (B) 0.1% formic acid in acetonitrile. The binary gradient was as follows. AutoSampler: CTC PAL
(§3) The peak area ratio of the analyte to the internal standard was used to quantify the metabolite. The values of peak area ratios in the presence of test compound were compared to those of maximum or minimum controls and were expressed as % inhibition by interpolating between the maximum and minimum peak area ratios. Incubations with no inhibitor were defined as the maxima. The following equation was used to calculate the % inhibition: [1−[(X−Low control)/(High control−Low control)]]*100 For the IC50 calculation, SigmaPlot was used to plot the mean % inhibition versus the test compound concentrations and for non-linear regression analysis of the data. Depending on the range of data points defining the inhibition curve, the data may have been fit to the 4-parameter logistic equation.

CYP1A2 = molecular target: T2, CYP1A2 (Homo sapiens, UniProt P05177); test: Cocktail assay for CYPs in human liver microsomes, phenacetin O-deethylation (1A2); assay type: biochemical; conditions: 10 μM phenacetin, 10 min at 37° C.
T2 construct: 0.1 mg/mL protein human liver microsomes (BD Gentest); tissue BD Gentest; host or cells: human liver microsomes
T2 sequence (P05177 1-516): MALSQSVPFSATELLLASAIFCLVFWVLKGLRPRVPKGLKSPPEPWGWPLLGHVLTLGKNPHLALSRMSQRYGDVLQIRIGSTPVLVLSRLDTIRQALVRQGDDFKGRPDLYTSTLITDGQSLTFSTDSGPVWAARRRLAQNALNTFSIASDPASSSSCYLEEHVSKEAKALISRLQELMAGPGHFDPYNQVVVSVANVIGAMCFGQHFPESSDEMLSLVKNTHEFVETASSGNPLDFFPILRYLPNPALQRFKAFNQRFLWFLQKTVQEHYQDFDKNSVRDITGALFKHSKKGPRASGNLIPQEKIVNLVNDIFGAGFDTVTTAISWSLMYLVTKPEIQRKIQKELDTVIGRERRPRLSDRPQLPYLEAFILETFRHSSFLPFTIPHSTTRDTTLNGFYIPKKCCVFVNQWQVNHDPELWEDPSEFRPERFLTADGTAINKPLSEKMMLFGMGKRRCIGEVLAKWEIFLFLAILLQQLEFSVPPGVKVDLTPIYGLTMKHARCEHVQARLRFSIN
Method: as §1, §2, §3

CYP2C9 = molecular target: T3, CYP2C9 (Homo sapiens, UniProt P11712); test: Cocktail assay for CYPs in human liver microsomes, diclofenac 4′-hydroxylation (2C9); assay type: biochemical; conditions: 5 μM diclofenac, 10 min at 37° C.
T3 construct: 0.1 mg/mL protein human liver microsomes (BD Gentest); tissue BD Gentest; host or cells: human liver microsomes
T3 sequence (P11712 whole entry): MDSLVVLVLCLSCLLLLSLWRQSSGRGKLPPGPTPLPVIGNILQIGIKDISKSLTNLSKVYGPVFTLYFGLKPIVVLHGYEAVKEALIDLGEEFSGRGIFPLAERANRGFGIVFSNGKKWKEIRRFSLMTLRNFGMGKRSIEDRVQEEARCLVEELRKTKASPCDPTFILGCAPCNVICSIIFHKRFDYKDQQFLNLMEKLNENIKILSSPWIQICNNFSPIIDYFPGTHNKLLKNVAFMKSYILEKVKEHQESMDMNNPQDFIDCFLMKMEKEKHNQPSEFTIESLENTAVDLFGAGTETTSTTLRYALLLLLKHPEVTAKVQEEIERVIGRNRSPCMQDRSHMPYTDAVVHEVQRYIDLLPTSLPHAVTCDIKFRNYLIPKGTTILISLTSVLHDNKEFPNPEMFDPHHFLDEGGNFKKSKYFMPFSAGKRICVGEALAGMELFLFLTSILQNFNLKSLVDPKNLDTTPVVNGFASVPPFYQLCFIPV
Method: as §1, §2, §3

CYP2C19 = molecular target: T4, CYP2C19 (Homo sapiens, UniProt P33261); test: Cocktail assay for CYPs in human liver microsomes, mephenytoin 4′-hydroxylation (2C19); assay type: biochemical; conditions: 30 μM mephenytoin, 10 min at 37° C.
T4 construct: 0.1 mg/mL protein human liver microsomes (BD Gentest); tissue BD Gentest; host or cells: human liver microsomes
T4 sequence (P33261 whole entry): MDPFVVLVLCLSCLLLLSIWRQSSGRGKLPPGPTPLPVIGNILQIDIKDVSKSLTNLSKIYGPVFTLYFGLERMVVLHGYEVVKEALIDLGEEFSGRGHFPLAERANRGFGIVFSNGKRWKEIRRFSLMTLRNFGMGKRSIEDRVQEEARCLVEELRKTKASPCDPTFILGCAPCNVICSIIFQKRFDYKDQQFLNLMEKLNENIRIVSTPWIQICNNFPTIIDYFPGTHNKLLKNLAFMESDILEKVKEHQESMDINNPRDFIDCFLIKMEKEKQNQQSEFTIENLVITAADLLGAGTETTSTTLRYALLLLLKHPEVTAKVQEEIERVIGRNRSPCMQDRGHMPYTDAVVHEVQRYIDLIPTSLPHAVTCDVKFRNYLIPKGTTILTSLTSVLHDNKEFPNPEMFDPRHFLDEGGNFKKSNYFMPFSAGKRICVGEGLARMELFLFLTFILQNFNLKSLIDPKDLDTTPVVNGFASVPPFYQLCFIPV
Method: as §1, §2, §3

CYP2D6 = molecular target: T5, CYP2D6 (Homo sapiens, UniProt P10635); test: Cocktail assay for CYPs in human liver microsomes, dextromethorphan O-demethylation (2D6); assay type: biochemical; conditions: 5 μM dextromethorphan, 10 min at 37° C.
T5 construct: 0.1 mg/mL protein human liver microsomes (BD Gentest); tissue BD Gentest; host or cells: human liver microsomes
T5 sequence (P10635 whole entry): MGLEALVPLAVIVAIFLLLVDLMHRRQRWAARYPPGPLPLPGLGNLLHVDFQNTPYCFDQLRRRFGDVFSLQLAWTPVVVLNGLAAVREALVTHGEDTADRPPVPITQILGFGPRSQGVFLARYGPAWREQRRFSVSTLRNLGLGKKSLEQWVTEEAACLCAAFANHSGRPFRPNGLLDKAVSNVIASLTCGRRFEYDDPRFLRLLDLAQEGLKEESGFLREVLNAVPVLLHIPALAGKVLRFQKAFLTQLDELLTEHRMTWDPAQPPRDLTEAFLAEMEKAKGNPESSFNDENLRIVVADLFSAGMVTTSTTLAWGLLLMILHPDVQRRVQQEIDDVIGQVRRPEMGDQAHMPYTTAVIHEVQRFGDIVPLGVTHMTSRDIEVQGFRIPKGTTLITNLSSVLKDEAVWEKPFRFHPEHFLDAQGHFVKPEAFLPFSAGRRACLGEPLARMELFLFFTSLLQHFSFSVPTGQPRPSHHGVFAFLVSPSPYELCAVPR
Method: as §1, §2, §3

human CYP11B1 = molecular target: T6, human CYP11B1 (Homo sapiens, UniProt P15538); test: IC50 vs CYP11B1 by measurement of cortisol synthesis in V79 cells; assay type: cell-based; conditions: V79 cells expressing human CYP11B1, 1500 nM RSS, cortisol HTRF
T6 construct: expressed in transfected cells
T6 sequence (P15538 25-503): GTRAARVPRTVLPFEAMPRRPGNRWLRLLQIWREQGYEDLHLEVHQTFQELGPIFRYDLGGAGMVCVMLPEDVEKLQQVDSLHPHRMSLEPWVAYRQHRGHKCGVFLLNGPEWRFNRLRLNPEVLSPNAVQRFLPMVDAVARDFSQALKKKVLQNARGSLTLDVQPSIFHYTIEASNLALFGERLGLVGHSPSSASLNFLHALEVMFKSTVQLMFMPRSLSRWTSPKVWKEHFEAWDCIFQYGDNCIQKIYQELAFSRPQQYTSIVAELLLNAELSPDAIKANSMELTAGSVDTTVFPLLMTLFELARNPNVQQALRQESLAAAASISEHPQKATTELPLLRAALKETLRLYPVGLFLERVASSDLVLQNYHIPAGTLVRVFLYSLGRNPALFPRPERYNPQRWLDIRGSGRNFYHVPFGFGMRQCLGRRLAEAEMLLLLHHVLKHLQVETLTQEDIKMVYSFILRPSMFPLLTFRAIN
Method: (§4) This assay was performed in a standard 384-well plate design using cultured V79 cells stably expressing human CYP11B1 or human CYP11B2. Test compounds at 10 concentrations (for example, 10000, 3333.3, 1111.1, 370.4, 123.5, 41.2, 13.7, 4.6, 1.5 and 0.5 nM) were added in 384-well plate after the cell-seeding procedure. The incubation substrate contains 1500 nM RSS for CYP11B1 assay/750 nM DOC for CYP11B2 assay. The Cortisol/Aldosterone production of cell culture supernatant was determined by Cortisol/Aldosterone HTRF kit after for about 15 hours incubation at RT (protect from light). IC50 (nM) values were calculated from the percent inhibition observed for each test compound at 10 concentrations.
(§5) The assay plate was read using Envision (Perkin Elmer, Waltham, Mass.) at 665 nm and 590 nm (using Filter Barcode of 217#, 205#; Mirror Barcode of 446#).
(§6) Data are analyzed using Assay Data Analyzer. All ratio data (665 nm/590 nm) are back calculated according to the standard curve, resulting in Cortisol/Aldosterone concentrations. IC50 (nM) values are reported as the Inflection Point (IP) of a four parameter fit of the titration data.
(§7) The following equation was used to calculate the % inhibition: % Activity=100×{1−(Sample_back calculated Cortisol/Aldosterone concentration−LC_back calculated Cortisol/Aldosterone concentration)/(HC_back calculated Cortisol/Aldosterone concentration−LC_back calculated Cortisol/Aldosterone concentration)} Curve Fitting: Four Parameter Logistic: […]

human CYP11B2 = molecular target: T7, human CYP11B2 (Homo sapiens, UniProt P19099); test: IC50 vs CYP11B2 by measurement of aldosterone synthesis in V79 cells; assay type: cell-based; conditions: V79 cells expressing human CYP11B2, 750 nM DOC, aldosterone HTRF
T7 construct: expressed in transfected cells
T7 sequence (P19099 25-503): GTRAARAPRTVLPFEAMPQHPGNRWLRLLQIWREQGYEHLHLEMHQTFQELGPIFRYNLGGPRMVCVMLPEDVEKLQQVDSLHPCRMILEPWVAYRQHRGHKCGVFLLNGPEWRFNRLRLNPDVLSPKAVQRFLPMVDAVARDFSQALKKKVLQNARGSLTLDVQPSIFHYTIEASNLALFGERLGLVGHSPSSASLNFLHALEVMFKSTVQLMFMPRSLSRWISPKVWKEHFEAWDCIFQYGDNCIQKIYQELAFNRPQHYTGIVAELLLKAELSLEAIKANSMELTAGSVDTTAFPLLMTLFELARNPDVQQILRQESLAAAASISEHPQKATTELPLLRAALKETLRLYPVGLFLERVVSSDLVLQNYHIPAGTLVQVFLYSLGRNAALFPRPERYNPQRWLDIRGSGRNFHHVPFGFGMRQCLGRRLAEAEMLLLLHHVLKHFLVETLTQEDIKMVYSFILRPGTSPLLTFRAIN
Method: as §4, §5, §6, §7

| SMILES | pIC50 (CYP3A4) | pIC50 (CYP1A2) | pIC50 (CYP2C9) | pIC50 (CYP2C19) | pIC50 (CYP2D6) | pIC50 (human CYP11B1) | pIC50 (human CYP11B2) |
| --- | --- | --- | --- | --- | --- | --- | --- |
| CO[C@H]1CN(C(=O)c2cncn2[C@@H](C)c2ccccc2-c2ccc(F)cc2)CC[C@@H]1N1CCOC1=O [Compound 33] | 8.04 | < 5.00 | < 5.00 | < 5.00 | 5.13 | < 4.30 | 4.63 |
| C[C@H]1CN(C(=O)c2cncn2[C@@H](C)c2ccccc2-c2ccc(F)cc2)CC[C@H]1N1CC[C@@H](O)C1 [Compound 32] | 8.38 | < 5.00 | < 5.00 | < 5.00 | 5.08 | 4.65 | < 4.30 |
| C[C@@H](c1ccccc1-c1cccc(F)c1)n1cncc1C(=O)N1CCC2NCCO[C@@H]2C1 (stereo partly drawn) [Compound 36] | 8.02 | < 5.00 | < 5.00 | < 5.00 | < 5.00 | 4.49 | < 4.30 |
| CO[C@@H]1CN(C2CCN(C(=O)c3cncn3[C@@H](C)c3ccccc3-c3ccc(F)cc3)CC2)CC[C@@H]1O [Compound 12] | 8.21 | < 5.00 | < 5.00 | < 5.00 | 5.29 | 4.38 | < 4.30 |
| C[C@@H]1CN(C2CCN(C(=O)c3cncn3[C@@H](C)c3ccccc3-c3ccc(F)cc3)CC2)CC[C@@H]1O [Compound 17] | 8.31 | < 5.00 | < 5.00 | < 5.00 | 5.07 | 4.94 | 4.50 |
| COc1ccccc1-c1ccccc1[C@H](C)n1cncc1C(=O)N1CCC2NCCO[C@@H]2C1 (stereo partly drawn) [Compound 44] | 8.30 | < 5.00 | < 5.00 | < 5.00 | 5.23 | 4.91 | < 4.30 |
| C[C@@H](c1ccccc1-c1ccc(F)cc1)n1cncc1C(=O)N1CCC(NC2CCC(O)CC2)CC1 (stereo partly drawn) [Compound 25] | 8.04 | < 5.00 | < 5.00 | < 5.00 | 5.23 | < 4.30 | < 4.30 |
| C[C@@H](c1ccccc1-c1ccc(F)cc1)n1cncc1C(=O)N1CCC2NC(=O)CO[C@@H]2C1 (mixture of isomers) [Compound 50] | 8.28 | < 5.00 | < 5.00 | < 5.00 | 5.09 | 4.57 | < 4.30 |
| CO[C@H]1CN(C2CCN(C(=O)c3cncn3[C@@H](C)c3ccccc3-c3ccc(F)cc3)CC2)C[C@@H]1O [Compound 22] | 8.40 | < 5.00 | < 5.00 | < 5.00 | 5.01 | 4.67 | < 4.30 |
| C[C@@H](c1ccccc1-c1ccccc1OC(F)(F)F)n1cncc1C(=O)N1CCC2NCCO[C@@H]2C1 (stereo partly drawn) [Compound 42] | 8.33 | < 5.00 | < 5.00 | < 5.00 | < 5.00 | 5.25 | < 4.30 |
| C[C@@H](c1ccccc1-c1ccc(F)cc1)n1cncc1C(=O)N1CCC(N2C[C@@H](O)[C@H](F)C2)CC1 [Compound 15] | 8.39 | < 5.00 | < 5.00 | < 5.00 | < 5.00 | 4.69 | < 4.30 |
| C[C@@H](c1ccccc1-c1ccc(F)cc1)n1cncc1C(=O)N1CCC[C@H]2OCCN[C@@H]2C1 [Compound 52] | 8.49 | < 5.00 | < 5.00 | < 5.00 | < 5.00 | 5.41 | < 4.30 |
